Calls of active or inactive are those of the source.
Tests used:
[1] = A549 cell cytotoxicity, dose response, cytotoxicity control, plate reader, cherry-pick, antagonist series (AID 743412); assay type: functional, cell-based
[2] = biological target: T1, Protein RecA (Mycobacterium tuberculosis, UniProt P9WHJ3); experiment: Fluorescence Cell-Free Homogeneous Dose Retest to Identify Inhibitors of RecA-Intein Splicing Activity. [Related pubchem assays (depositor defined):AID2097, AID2223, AID489010, AID492950]; assay type: functional
T1 sequence (P9WHJ3 whole entry): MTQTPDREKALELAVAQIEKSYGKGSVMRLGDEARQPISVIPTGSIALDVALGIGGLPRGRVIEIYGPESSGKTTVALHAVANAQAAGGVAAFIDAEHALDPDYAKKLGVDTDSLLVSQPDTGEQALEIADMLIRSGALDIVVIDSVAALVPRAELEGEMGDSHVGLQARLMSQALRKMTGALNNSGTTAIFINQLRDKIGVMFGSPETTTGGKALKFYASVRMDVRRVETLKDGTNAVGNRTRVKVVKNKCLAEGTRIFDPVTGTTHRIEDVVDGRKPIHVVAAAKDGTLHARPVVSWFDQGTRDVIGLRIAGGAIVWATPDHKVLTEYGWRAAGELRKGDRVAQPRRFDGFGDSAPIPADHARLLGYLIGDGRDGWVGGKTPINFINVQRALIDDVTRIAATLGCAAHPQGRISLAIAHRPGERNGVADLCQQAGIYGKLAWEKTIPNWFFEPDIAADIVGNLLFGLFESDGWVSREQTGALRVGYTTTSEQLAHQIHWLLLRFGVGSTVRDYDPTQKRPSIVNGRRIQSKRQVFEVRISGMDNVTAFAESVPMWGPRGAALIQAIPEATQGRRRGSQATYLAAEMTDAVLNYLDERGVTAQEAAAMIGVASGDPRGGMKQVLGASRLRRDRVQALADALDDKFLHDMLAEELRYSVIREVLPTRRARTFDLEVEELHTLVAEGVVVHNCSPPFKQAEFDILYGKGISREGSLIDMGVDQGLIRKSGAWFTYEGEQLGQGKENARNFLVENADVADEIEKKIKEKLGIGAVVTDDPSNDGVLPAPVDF

[3] = biological target: T2, Replicative DNA helicase DnaB (Mycobacterium tuberculosis, UniProt P9WMR3); experiment: DnaB intein splicing inhibitors, dose response, biochemical, cell-free fluorescence (AID 449749); assay type: functional
T2 sequence (P9WMR3 whole entry): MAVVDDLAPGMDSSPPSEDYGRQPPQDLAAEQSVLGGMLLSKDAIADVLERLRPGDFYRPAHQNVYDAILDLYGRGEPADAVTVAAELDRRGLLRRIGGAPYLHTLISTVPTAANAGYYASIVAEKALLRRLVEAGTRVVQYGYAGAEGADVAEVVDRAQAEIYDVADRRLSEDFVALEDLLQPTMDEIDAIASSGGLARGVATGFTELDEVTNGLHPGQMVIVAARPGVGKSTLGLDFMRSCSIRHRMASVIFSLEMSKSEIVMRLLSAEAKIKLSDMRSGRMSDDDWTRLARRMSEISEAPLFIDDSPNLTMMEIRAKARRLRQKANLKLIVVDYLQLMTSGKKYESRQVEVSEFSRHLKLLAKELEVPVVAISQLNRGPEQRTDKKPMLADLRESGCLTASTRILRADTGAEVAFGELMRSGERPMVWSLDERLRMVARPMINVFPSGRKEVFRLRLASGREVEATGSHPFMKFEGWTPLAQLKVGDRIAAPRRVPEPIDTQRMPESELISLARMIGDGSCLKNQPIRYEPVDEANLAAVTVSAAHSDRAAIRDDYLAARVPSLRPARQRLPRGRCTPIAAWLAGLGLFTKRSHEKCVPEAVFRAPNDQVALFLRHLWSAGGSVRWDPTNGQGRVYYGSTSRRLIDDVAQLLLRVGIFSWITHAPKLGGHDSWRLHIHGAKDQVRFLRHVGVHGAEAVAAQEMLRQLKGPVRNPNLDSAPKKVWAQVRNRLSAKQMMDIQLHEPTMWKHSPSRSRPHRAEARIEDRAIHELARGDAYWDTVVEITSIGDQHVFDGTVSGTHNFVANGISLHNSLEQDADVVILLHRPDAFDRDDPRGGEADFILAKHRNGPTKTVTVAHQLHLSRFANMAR

[4] = biological target: T3, Leucine aminopeptidase (Plasmodium falciparum 3D7, UniProt Q8IL11); experiment: P. falciparum M17LAP inhibitors, primary screen, biochemical, fluorogenic H-Leu-NHMec substrate, 1536-well (AID 1619); assay type: functional
T3 sequence (Q8IL11 whole entry): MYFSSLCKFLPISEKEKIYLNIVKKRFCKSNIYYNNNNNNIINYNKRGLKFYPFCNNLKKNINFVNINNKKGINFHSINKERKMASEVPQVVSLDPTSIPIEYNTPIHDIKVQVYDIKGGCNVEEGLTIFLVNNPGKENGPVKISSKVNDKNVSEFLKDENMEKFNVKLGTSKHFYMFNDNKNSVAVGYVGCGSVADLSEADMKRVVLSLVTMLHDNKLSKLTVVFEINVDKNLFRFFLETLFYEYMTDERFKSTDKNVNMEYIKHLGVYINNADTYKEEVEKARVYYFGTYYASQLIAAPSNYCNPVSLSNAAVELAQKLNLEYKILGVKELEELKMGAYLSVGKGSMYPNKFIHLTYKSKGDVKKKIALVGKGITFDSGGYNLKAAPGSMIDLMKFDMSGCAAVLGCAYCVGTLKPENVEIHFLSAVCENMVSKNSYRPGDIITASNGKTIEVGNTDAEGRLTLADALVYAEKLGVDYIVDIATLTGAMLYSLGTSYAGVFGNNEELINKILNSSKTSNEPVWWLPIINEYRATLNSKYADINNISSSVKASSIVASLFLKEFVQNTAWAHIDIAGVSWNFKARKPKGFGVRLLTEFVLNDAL

[5] = biological target: T4, Rac GTPase-activating protein 1 (Homo sapiens, UniProt Q9H0H5); experiment: MgcRacGAP GTPase-activating activity inhibitors, confirmation, biochemical, ADP Hunter fluorescence, primary and confirmatory (AID 624330); assay type: functional
T4 sequence (Q9H0H5 whole entry): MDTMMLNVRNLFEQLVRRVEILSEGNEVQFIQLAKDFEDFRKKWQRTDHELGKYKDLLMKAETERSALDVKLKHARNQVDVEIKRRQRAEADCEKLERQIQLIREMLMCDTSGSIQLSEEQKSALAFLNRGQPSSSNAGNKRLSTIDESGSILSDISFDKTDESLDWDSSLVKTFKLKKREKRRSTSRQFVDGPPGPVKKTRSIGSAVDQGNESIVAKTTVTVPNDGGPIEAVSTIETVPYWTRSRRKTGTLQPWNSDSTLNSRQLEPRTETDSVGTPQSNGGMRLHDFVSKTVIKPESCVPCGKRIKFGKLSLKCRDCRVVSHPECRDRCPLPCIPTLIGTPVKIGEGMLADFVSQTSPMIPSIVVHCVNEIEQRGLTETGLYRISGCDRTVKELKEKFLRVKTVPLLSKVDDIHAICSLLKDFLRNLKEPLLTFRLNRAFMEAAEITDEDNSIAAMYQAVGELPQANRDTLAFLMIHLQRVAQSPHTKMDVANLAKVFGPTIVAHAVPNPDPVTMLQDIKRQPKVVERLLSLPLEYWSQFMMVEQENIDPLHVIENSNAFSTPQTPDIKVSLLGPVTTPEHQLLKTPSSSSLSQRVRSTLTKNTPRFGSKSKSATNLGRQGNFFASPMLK

[6] = HeLa cell cytotoxicity, dose response, cytotoxicity control for MgcRacGAP inhibitor project (AID 624300); assay type: functional
[7] = test system: HEK293; experiment: inhibitors of LMP1-driven NF-kB reporter, dose response, cell-based, HEK293, luciferase, cherry-pick (AID 588343); assay type: functional; conditions: Homo sapiens
[8] = Vero E6 cell cytotoxicity, dose response, cytotoxicity control for non-replicating M. tuberculosis project, secondary assay (AID 492998); assay type: functional, VeroE6; conditions: Vero C1008
[9] = biological target: T5, Histone-lysine N-methyltransferase NSD2 (Homo sapiens, UniProt O96028); assay type: biochemical
T5 sequence (O96028 whole entry): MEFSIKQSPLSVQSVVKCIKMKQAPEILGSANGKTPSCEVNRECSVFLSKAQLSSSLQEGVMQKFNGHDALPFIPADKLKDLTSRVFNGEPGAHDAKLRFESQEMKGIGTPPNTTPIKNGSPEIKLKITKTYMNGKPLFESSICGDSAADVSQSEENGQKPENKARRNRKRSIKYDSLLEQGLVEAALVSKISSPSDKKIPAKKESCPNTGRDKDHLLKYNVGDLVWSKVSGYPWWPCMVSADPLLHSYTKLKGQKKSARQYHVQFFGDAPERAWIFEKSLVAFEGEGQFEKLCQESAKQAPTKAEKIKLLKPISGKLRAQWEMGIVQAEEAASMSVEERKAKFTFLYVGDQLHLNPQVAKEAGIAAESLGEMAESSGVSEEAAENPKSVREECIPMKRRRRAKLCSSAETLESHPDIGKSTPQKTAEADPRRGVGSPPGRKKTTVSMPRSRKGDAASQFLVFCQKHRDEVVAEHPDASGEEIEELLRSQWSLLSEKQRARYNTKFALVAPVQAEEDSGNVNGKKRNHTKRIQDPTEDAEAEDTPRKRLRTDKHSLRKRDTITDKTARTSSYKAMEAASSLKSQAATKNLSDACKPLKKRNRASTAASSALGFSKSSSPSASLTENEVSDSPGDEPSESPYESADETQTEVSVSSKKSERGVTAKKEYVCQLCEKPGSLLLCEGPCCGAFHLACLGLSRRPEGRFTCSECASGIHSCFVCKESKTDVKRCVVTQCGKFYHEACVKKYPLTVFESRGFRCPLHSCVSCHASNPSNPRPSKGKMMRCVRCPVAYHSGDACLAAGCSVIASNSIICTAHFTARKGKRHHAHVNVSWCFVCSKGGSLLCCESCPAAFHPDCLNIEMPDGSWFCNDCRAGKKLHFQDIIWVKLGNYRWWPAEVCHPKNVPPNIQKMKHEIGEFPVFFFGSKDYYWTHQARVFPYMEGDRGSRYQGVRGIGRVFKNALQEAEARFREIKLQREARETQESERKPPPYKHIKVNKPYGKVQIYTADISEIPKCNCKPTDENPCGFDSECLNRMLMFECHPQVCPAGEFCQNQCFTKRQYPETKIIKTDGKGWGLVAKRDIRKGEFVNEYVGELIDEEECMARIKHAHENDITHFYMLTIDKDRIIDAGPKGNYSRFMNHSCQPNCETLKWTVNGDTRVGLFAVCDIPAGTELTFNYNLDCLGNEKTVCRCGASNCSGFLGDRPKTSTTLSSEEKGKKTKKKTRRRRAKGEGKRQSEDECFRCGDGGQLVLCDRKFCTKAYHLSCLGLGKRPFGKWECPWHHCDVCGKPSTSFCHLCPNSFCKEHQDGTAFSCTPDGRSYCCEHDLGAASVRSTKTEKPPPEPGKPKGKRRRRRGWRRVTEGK

[10] = biological target: Nonstructural protein 1 (Influenza A virus, UniProt Q194T2); assay type: functional, Influenza A virus (A/California/07/2009(H1N1))
Chain of Nonstructural protein 1 (Q194T2 whole entry): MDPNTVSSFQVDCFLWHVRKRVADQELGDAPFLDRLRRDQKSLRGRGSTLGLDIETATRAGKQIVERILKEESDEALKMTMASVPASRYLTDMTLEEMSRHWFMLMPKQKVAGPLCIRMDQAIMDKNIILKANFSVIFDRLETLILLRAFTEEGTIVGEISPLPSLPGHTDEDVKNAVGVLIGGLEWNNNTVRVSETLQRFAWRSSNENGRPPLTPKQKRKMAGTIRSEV

[11] = test system: H9c2; experiment: cells; assay type: functional, cell-based; conditions: Rattus norvegicus, H9c2, Myocardium;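 note: confirmatory concentration-response retest of ultra-high-throughput screening hits for modulation of myocardial damage; cell death induced by hydrogen peroxide oxidative stress; compound pretreatment for 60 min then peroxide exposure for 2 h; potency is for protecting the cells against peroxide damage rather than for killing them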
[12] = biological target: Glucose-6-phosphate 1-dehydrogenase (Homo sapiens, UniProt P11413); experiment: human G6PD enzyme inhibitors, dose response, selectivity assay for P. falciparum G6PD inhibitor project, biochemical, fluorescence (AID 504792); assay type: functional
Chain of Glucose-6-phosphate 1-dehydrogenase (P11413 whole entry): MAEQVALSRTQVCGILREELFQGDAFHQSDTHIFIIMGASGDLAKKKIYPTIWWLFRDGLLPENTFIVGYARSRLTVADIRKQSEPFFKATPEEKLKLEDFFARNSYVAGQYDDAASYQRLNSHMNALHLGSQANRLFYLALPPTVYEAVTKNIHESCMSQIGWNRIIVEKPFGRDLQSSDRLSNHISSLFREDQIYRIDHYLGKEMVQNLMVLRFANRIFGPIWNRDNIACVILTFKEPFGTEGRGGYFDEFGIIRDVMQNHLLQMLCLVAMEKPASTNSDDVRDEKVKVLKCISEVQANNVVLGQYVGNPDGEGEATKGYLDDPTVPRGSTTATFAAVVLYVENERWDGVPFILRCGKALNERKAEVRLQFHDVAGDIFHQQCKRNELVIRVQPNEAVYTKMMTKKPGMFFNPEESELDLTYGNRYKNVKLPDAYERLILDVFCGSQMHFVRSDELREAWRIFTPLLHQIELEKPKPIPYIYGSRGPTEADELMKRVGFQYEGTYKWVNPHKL

[13] = biological target: Peroxisome proliferator-activated receptor gamma/Nuclear receptor coactivator 2 (Homo sapiens, UniProt P37231); assay type: functional;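 note: agonist potency for raising coactivator recruitment to the receptor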
[14] = biological target: Peroxisome proliferator-activated receptor gamma/Nuclear receptor coactivator 1 (Homo sapiens, UniProt P37231); assay type: functional;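 note: agonist potency as compounds enhance coactivator SRC-1 recruitment to PPARgamma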
Chain of Peroxisome proliferator-activated receptor gamma/Nuclear receptor coactivator 1 (P37231 whole entry): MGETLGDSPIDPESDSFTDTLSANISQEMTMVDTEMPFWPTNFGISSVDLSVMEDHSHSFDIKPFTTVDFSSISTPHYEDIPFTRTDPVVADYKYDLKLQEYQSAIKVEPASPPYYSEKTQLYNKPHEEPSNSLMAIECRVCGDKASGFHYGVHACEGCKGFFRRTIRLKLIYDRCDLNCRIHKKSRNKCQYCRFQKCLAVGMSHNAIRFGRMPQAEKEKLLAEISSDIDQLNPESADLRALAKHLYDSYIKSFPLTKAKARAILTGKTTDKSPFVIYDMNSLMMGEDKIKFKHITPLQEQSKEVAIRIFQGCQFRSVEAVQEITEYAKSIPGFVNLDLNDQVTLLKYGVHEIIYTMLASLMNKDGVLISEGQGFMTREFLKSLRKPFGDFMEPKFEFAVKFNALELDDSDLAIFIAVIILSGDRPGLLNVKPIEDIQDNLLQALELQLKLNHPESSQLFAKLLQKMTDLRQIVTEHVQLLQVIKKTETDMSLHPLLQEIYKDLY
Chain of Peroxisome proliferator-activated receptor gamma/Nuclear receptor coactivator 1 (Q15788 whole entry, further chain): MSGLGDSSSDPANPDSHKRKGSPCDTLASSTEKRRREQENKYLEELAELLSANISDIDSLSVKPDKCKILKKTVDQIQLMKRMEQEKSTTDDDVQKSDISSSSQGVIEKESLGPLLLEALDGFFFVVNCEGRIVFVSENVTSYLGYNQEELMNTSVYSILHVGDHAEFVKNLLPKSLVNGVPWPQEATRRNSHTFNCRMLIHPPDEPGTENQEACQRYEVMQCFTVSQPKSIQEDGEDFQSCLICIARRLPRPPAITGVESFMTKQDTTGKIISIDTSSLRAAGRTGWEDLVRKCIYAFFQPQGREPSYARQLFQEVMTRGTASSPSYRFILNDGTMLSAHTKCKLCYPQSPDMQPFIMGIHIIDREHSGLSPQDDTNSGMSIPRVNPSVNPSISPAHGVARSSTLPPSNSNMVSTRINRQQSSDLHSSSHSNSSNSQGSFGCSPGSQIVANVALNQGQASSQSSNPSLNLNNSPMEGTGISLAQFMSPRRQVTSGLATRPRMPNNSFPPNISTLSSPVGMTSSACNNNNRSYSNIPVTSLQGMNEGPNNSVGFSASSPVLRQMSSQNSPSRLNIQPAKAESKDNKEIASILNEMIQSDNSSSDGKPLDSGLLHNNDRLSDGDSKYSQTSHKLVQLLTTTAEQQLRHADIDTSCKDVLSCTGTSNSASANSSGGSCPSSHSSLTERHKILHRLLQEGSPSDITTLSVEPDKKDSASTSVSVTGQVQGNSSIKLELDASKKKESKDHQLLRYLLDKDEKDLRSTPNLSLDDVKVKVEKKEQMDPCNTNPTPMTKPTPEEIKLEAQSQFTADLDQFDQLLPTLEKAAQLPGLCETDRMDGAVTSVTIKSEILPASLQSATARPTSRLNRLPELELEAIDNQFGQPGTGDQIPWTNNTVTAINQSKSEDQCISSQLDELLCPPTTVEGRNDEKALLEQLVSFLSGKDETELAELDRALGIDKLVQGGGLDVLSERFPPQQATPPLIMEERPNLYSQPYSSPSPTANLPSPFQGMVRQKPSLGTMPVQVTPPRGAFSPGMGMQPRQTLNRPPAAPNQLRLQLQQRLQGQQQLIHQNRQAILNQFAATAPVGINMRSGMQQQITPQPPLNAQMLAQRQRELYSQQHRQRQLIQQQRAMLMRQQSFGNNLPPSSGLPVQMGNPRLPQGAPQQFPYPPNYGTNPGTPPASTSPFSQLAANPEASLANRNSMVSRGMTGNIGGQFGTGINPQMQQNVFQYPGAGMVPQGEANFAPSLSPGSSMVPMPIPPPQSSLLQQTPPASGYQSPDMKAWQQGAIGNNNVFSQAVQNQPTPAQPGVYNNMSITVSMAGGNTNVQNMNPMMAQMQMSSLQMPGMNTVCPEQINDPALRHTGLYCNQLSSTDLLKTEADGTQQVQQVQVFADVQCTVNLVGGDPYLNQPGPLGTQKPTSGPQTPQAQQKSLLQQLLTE

[15] = biological target: Peroxisome proliferator-activated receptor gamma/Nuclear receptor coactivator 3 (Homo sapiens, UniProt P37231); assay type: functional;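 note: agonist potency for raising coactivator recruitment to the receptor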
Chain of Peroxisome proliferator-activated receptor gamma/Nuclear receptor coactivator 3 (P37231 whole entry): as the sequence (P37231 whole entry) above
Chain of Peroxisome proliferator-activated receptor gamma/Nuclear receptor coactivator 3 (Q9Y6Q9 whole entry, further chain): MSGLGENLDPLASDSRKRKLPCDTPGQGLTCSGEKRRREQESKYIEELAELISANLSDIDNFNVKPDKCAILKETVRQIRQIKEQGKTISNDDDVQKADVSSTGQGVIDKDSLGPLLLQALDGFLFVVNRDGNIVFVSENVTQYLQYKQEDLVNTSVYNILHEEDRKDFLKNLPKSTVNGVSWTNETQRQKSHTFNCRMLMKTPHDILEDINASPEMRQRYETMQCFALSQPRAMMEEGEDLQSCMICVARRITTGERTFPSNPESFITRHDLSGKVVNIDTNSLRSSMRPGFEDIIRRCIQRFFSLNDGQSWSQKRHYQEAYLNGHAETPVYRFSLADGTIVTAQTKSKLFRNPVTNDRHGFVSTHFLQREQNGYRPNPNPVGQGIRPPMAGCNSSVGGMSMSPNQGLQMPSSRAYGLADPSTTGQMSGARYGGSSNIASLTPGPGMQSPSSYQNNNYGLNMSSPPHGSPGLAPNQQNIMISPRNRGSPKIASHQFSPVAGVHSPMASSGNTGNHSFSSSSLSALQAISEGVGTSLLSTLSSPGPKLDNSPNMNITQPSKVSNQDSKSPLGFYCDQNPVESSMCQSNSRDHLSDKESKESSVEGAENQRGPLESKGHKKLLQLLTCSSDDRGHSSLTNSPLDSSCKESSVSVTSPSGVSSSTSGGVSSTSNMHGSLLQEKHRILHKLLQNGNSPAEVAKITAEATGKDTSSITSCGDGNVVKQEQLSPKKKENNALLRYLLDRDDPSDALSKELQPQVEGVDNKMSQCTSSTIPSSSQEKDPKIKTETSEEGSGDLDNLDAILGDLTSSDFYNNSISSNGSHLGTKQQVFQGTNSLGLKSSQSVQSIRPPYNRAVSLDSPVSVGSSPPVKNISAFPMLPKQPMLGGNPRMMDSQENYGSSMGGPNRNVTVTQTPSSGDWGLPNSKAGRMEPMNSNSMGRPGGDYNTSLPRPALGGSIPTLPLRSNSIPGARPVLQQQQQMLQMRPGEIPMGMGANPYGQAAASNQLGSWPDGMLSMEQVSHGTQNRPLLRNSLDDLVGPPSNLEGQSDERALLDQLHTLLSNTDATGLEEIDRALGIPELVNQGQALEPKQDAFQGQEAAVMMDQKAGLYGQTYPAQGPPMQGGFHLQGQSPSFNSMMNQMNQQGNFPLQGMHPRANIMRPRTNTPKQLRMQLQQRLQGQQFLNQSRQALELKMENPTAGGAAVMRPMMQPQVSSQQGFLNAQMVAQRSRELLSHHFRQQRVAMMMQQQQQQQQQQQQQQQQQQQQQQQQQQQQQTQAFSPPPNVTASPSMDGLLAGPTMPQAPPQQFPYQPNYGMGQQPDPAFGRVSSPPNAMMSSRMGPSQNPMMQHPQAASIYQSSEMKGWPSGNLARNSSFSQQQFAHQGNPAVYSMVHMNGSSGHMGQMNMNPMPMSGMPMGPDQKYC

[16] = biological target: Cytochrome P450 3A4 (Homo sapiens, UniProt P08684);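 note: CYP3A4 tested as one member of a cytochrome P450 panel screen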
[17] = P. falciparum 3D7-ScDHODH growth inhibitors, dose response, SYBR Green, dry powder samples (AID 1159570); assay type: functional, cell-based;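 note: parasite growth measured after 72 hours of compound exposure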
[18] = P. falciparum Dd2 growth inhibitors, dose response, SYBR Green, cherry-picked samples (AID 1159567); assay type: functional, cell-based
[19] = P. falciparum ATP4 D1247Y mutant growth inhibitors, dose response, NITD609-resistant line, SYBR Green, dry powder (AID 1159571); assay type: functional, cell-based;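 note: parasites synchronized at ring stage by sorbitol before testing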
[20] = P. falciparum Dd2 growth inhibitors, dose response, SYBR Green, dry powder samples (AID 1159566); assay type: functional, cell-based;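 note: potency for growth inhibition with lower SYBR green DNA signal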

Cn1nnnc1SCC(=O)N1CCN(C(=O)c2ccco2)CC1
AC50 [1]: > 52 µM (inactive)

Cc1c(Cl)cccc1NC(=O)CSCc1cc(=O)[nH][nH]1
EC50 [2]: > 380 µM (inconclusive)
AC50 [3]: > 380 µM (inactive)
IC50 [4]: 62.3 µM (active)

COc1cc(CNCCc2ccc3c(c2)OCO3)cc(OC)c1OC
IC50 [5]: 127 µM (active)
CC50 [6]: 100 µM (active)

COc1ccc(C(c2c(C)n(C)n(-c3ccccc3)c2=O)c2c(C)n(C)n(-c3ccccc3)c2=O)c(OC)c1OC
AC50 [7]: 344 µM (active)

O=C1C(C2=NC(C(=O)O)C3C(=O)N(c4ccc(Cl)cc4)C(=O)C23)=C(O)c2ccccc21 (centres undefined)
IC50 [4]: 71.6 µM (active)

Cc1ccc(C(=O)CSc2nnc[nH]2)cc1
IC50 [4]: 50.5 µM (active)

CC(C)(C)c1ccc(C(=O)N2CCCC2)s1
CC50 [8]: > 20 µM (active)

Cc1cc(SCC(=O)c2ccc(O)c(O)c2)nc2ccccc12
IC50 [5]: 58.2 µM (active)
CC50 [6]: 100 µM (active)
AC50 [9]: 6.7 µM (active)

CCOC(=O)c1ccc(N2N=C(C)/C(=C/C=C/c3ccco3)C2=O)cc1
IC50 [10]: > 100 µM (active)

COc1c(O)cccc1/C=N/NC(=O)Cn1ccnc1C
IC50 [11]: > 79 µM (inactive)
IC50 [10]: 20.4 µM (active)

Cc1[nH]c2ccccc2c1/C=N/Nc1nncn1N
IC50 [12]: 44.1 µM (inactive)
IC50 [5]: 63.7 µM (active)

CN(C)c1ccc(/N=C/C=C2\N(C)c3ccccc3C2(C)C)cc1
EC50 [13]: > 79.4 µM (not active)
EC50 [14]: > 79.4 µM (not active)
IC50 [5]: 12.2 µM (active)
EC50 [15]: > 79.4 µM (not active)
CC50 [6]: 100 µM (active)
IC50 [10]: 13.8 µM (active)
AC50 [16]: 15.8 µM (inconclusive)

COc1cccc(CN2CC3(CCN(Cc4ccccn4)CC3)c3c([nH]c4cc(OC)ccc34)[C@@H]2CO)c1
AC50 [17]: 1.71 µM (active)
AC50 [18]: 1.96 µM (active)
AC50 [19]: 2.04 µM (active)
AC50 [20]: 1.79 µM (active)

Source: ChEMBL document CHEMBL1201862, “PubChem BioAssay data set” (2004)
